Common to all, as to format: cell-based
The test system of assay [1] is HCC827 cells (EGFR Exon19 del, non-small cell lung cancer cells). The assay is described as follows: Cell viability assay (WST/CCK8), HCC827 cells. As to conditions: Homo sapiens, HCC827, 72 h, HCC827 (Exon19 Del), 72 hours, read-out: IC50 (half inhibitory concentration). An outline of the steps:
(§1)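 Plated 3 000 cells/well in complete RPMI1640 the day before dosing; controls were DMSO (negative) and EGFR TKIs (positive).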

Assay [2] has as its system PC9 cells (EGFR Exon 19 del, non-small cell lung cancer cells). The assay is described as follows: Cell viability assay (WST/CCK8), PC9 cells. To be noted: Homo sapiens, PC-9, PC9 (Exon19 Del), 72 hours, read-out: IC50 (half inhibitory concentration). The method in brief: as §1
The test system of assay [3] is H1975 (EGFR T790M+L858R mutation, non-small cell lung cancer cell line). Description: Cell viability assay (WST/CCK8), H1975 cells. As to conditions: Homo sapiens, NCI-H1975, H1975 (L858R + T790M), read-out: IC50 (half inhibitory concentration). The method in brief: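 Cells seeded at 3 000 per well in RPMI1640 complete medium, dosed next day with compounds at indicated concentrations (DMSO negative control, EGFR TKIs as positive control).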

The subject of assay [4] is PC9BracA1 (EGFR Exon 19 del+T790M, non-small cell lung cancer cells). Description: Cell viability assay (WST/CCK8), PC9Brac1 cells. As to conditions: read-out: IC50 (half inhibitory concentration). From the text: The cell lines with abnormal EGFR expression used are as follows: • HCC827 cells (EGFR Exon19 del, non-small cell lung cancer cells); • PC9 cells (EGFR Exon 19 del, non-small cell lung cancer cells); • PC9BracA1 (EGFR Exon 19 del+T790M, non-small cell lung cancer cells) • H1975 (EGFR Exon T790M+L858R mutation, non-small cell lung cancer cell line) • BT474 cells (HER2 positive breast cancer cells)
All of the half inhibitory concentrations (IC50) of these compounds of the present invention were determined with WST reagent from Fuyuan Biotec Company. The specific experiment procedures are as follows: Cancer cells were planted in 96-well-plate at the density of 3 000 cells per well with 100 μL RPMI1640 completed culture medium. In the next day, compounds with indicated concentrations were added to the cells, DMSO was used as the negative control and the EGFR TKIs were used to treat cells as the positive groups. After 72 hours drug treatment, cell viability was measured by using the WST reagent following the instructions.

The test system of assay [5] is BT474 cells (HER2 positive breast cancer cells). The assay is described as follows: Cell viability assay (CCK8), BT474 cells. As to conditions: Homo sapiens, BT-474, Table 10, BT474, 72 hours, read-out: IC50 (half inhibitory concentration). An outline of the steps: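 HER2-overexpressing BT474 cells in RPMI1640 were exposed to compounds for 72 hours over 10 concentrations (3-fold dilution, top 10 μM). Viability was measured with CCK8 reagent against a DMSO control, and IC50 was taken from growth inhibition curves.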

Setting [6] is: PC9Brac1 (Ex19del + T790M), 72 hours, WST.
Setting [7] is: Table 6, canertinib-based compounds, WST.
[8] abbreviates: Table 7, canertinib-based compounds.
The mark [9] stands for this setting: Table 7, canertinib-based compounds, PC9Brca1 (Ex19del + T790M).

For 12 compounds, IC50 results are on record in patent publication US12564638B2 (SHANGHAITECH UNIVERSITY, priority 2019, dated 2026).

Where two headings read alike, the source gives them in different places.

For the compound `COc1cc2ncnc(Nc3ccc(F)c(Cl)c3)c2cc1NC(=O)/C=C/CN1CCC(NC(=O)CCCCCCCCCCSc2cccc3c2CN(C2CCC(=O)NC2=O)C3=O)CC1` (stereo not drawn) [SIAIS262118, (E)-N-(1-(4-((4-((3-chloro-4-fluorophenyl)amino)-7-methoxyquinazolin-6-yl)amino)-4-oxobut-2-en-1-yl)piperidin-4-yl)-11-((2-(2,6-dioxopiperidin-3-yl)-1-oxoisoindolin-4-yl)thio)undecanamide], the IC50 turned out to be 3 nM in assay [1] (WST (CCK8)); 3.8 nM in assay [2] (WST (CCK8)); 299 nM in assay [3] (72 hours, WST); 205 nM in assay [4] (setting [6]); 63.2 nM in assay [5].

`C=CC(=O)Nc1cc2c(Nc3ccc(F)c(Cl)c3)ncnc2cc1OCCCN1CCC(N2CCN(C(=O)CCCCCSc3cccc4c3CN(C3CCC(=O)NC3=O)C4=O)CC2)CC1` (stereo not drawn) [SIAIS262176, N-(4-((3-chloro-4-fluorophenyl)amino)-7-(3-(4-(4-(6-((2-(2,6-dioxopiperidin-3-yl)-1-oxoisoindolin-4-yl)thio)hexanoyl)piperazin-1-yl)piperidin-1-yl)propoxy)quinazolin-6-yl)acrylamide]: the IC50 in assay [1] (setting [7]) is 3.3 nM; in assay [2] (setting [7]), 15.8 nM; in assay [3] (setting [8]), 67 nM; in assay [4] (setting [9]), 472 nM; in assay [5] it was 1.4 nM.

`C=CC(=O)Nc1cc2c(Nc3ccc(F)c(Cl)c3)ncnc2cc1OCCCN1CCN(C(=O)CCCCCCNc2cccc3c2C(=O)N(C2CCC(=O)NC2=O)C3=O)CC1` (stereo not drawn) [SIAIS262126, N-(4-((3-chloro-4-fluorophenyl)amino)-7-(3-(4-(7-((2-(2,6-dioxopiperidin-3-yl)-1,3-dioxoisoindolin-4-yl)amino)heptanoyl)piperazin-1-yl)propoxy)quinazolin-6-yl)acrylamide]: the IC50 in assay [1] (setting [7]) stood at 2.5 nM; in assay [2] (setting [7]) it was 2.3 nM; in assay [3] (setting [8]), 20 nM; in assay [4] (setting [9]), 85 nM; in assay [5] it was 17.6 nM.

Consider `C=CC(=O)Nc1cc2c(Nc3ccc(F)c(Cl)c3)ncnc2cc1OCCCN1CCN(C(=O)CNc2cccc3c2C(=O)N(C2CCC(=O)NC2=O)C3=O)CC1` (stereo not drawn) [SIAIS262124, N-(4-((3-chloro-4-fluorophenyl)amino)-7-(3-(4-(2-((2-(2,6-dioxopiperidin-3-yl)-1,3-dioxoisoindolin-4-yl)amino)acetyl)piperazin-1-yl)propoxy)quinazolin-6-yl)acrylamide], for which the IC50 was 10.3 nM in assay [1] (setting [7]); 2.6 nM in assay [2] (setting [7]); 413 nM in assay [3] (setting [8]); 419 nM in assay [4] (setting [9]); 16.4 nM in assay [5].

Consider `C=CC(=O)Nc1cc2c(Nc3ccc(F)c(Cl)c3)ncnc2cc1OCCCN1CCC(N2CCN(C(=O)CSc3cccc4c3CN(C3CCC(=O)NC3=O)C4=O)CC2)CC1` (stereo not drawn) [SIAIS262174, N-(4-((3-chloro-4-fluorophenyl)amino)-7-(3-(4-(4-(2-((2-(2,6-dioxopiperidin-3-yl)-1-oxoisoindolin-4-yl)thio)acetyl)piperazin-1-yl)piperidin-1-yl)propoxy)quinazolin-6-yl)acrylamide], for which the IC50 turned out to be 11 nM in assay [1] (setting [7]); 16.7 nM in assay [2] (setting [7]); 287 nM in assay [3] (setting [8]); 267 nM in assay [4] (setting [9]); 28.2 nM in assay [5].

With `C=CC(=O)Nc1cc2c(Nc3ccc(F)c(Cl)c3)ncnc2cc1OCCCN1CCC(N2CCN(C(=O)CNc3cccc4c3C(=O)N(C3CCC(=O)NC3=O)C4=O)CC2)CC1` (stereo not drawn) [SIAIS262177, N-(4-((3-chloro-4-fluorophenyl)amino)-7-(3-(4-(4-(2-((2-(2,6-dioxopiperidin-3-yl)-1,3-dioxoisoindolin-4-yl)amino)acetyl)piperazin-1-yl)piperidin-1-yl)propoxy)quinazolin-6-yl)acrylamide], the IC50 in assay [1] (setting [7]) is 5.7 nM; in assay [2] (setting [7]) it was 3.4 nM; in assay [3] (setting [8]), 654 nM; in assay [4] (setting [9]), 209 nM; in assay [5] it was 8.2 nM.

As for `C=CC(=O)Nc1cc2c(Nc3ccc(F)c(Cl)c3)ncnc2cc1OCCCN1CCN(C(=O)CCCCSc2cccc3c2CN(C2CCC(=O)NC2=O)C3=O)CC1` (stereo not drawn) [SIAIS262122, N-(4-((3-chloro-4-fluorophenyl)amino)-7-(3-(4-(5-((2-(2,6-dioxopiperidin-3-yl)-1-oxoisoindolin-4-yl)thio)pentanoyl)piperazin-1-yl)propoxy)quinazolin-6-yl)acrylamide], the IC50 in assay [1] (setting [7]) worked out at 4.1 nM; in assay [2] (setting [7]), 23.1 nM; in assay [3] (setting [8]), 97 nM; in assay [4] (setting [9]), 474 nM; in assay [5], 48 nM.

Take `COc1cc2ncnc(Nc3ccc(F)c(Cl)c3)c2cc1NC(=O)/C=C/CN1CCC(N2CCN(C(=O)CNc3cccc4c3C(=O)N(C3CCC(=O)NC3=O)C4=O)CC2)CC1` (stereo not drawn) [SIAIS262036, (E)-N-(4-((3-chloro-4-fluorophenyl)amino)-7-methoxyquinazolin-6-yl)-4-(4-(4-(2-((2-(2,6-dioxopiperidin-3-yl)-1,3-dioxoisoindolin-4-yl)amino)acetyl)piperazin-1-yl)piperidin-1-yl)but-2-enamide]: the IC50 in assay [1] (WST (CCK8)) stood at 2.4 nM; in assay [2] (WST (CCK8)), 6.7 nM; in assay [3] (72 hours, WST) it was 511 nM; in assay [4] (setting [6]), 260 nM; in assay [5] it was 0.3 nM.

Regarding `C=CC(=O)Nc1cc2c(Nc3ccc(F)c(Cl)c3)ncnc2cc1OCCCN1CCN(CCCCC#CC2c3ccccc3C(=O)N2C2CCC(=O)NC2=O)CC1` (stereo not drawn) [SIAIS262131, N-(4-((3-chloro-4-fluorophenyl)amino)-7-(3-(4-(6-(2-(2,6-dioxopiperidin-3-yl)-3-oxoisoindolin-1-yl)hex-5-yn-1-yl)piperazin-1-yl)propoxy)quinazolin-6-yl)acrylamide], the IC50 in assay [1] (setting [7]) stood at 1.2 nM; in assay [2] (setting [7]), 29.3 nM; in assay [3] (setting [8]), 45 nM; in assay [4] (setting [9]), 216 nM; in assay [5], 5.1 nM.

`COc1cc2ncnc(Nc3ccc(F)c(Cl)c3)c2cc1NC(=O)/C=C/CN1CCC(NC(=O)CCCCCCSc2cccc3c2CN(C2CCC(=O)NC2=O)C3=O)CC1` (stereo not drawn) [SIAIS262115, (E)-N-(1-(4-((4-((3-chloro-4-fluorophenyl)amino)-7-methoxyquinazolin-6-yl)amino)-4-oxobut-2-en-1-yl)piperidin-4-yl)-7-((2-(2,6-dioxopiperidin-3-yl)-1-oxoisoindolin-4-yl)thio)heptanamide]: the IC50 in assay [1] (WST (CCK8)) stood at 4 nM; in assay [2] (WST (CCK8)), 7.2 nM; in assay [3] (72 hours, WST) it was 550 nM; in assay [4] (setting [6]), 488 nM; in assay [5], 33.7 nM.

`COc1cc2ncnc(Nc3ccc(F)c(Cl)c3)c2cc1NC(=O)/C=C/CN1CCC(NC(=O)CCCCCCNc2cccc3c2C(=O)N(C2CCC(=O)NC2=O)C3=O)CC1` (stereo not drawn) [SIAIS249085, (E)-N-(1-(4-((4-((3-chloro-4-fluorophenyl)amino)-7-methoxyquinazolin-6-yl)amino)-4-oxobut-2-en-1-yl)piperidin-4-yl)-7-((2-(2,6-dioxopiperidin-3-yl)-1,3-dioxoisoindolin-4-yl)amino)heptanamide]: the IC50 was 3 nM in assay [1] (WST (CCK8)); 7.9 nM in assay [2] (WST (CCK8)); 952 nM in assay [3] (72 hours, WST); 481 nM in assay [4] (setting [6]); 39.3 nM in assay [5].

`C=CC(=O)Nc1cc2c(Nc3ccc(F)c(Cl)c3)ncnc2cc1OCCCN1CCN(C(=O)CCCCCSc2cccc3c2CN(C2CCC(=O)NC2=O)C3=O)CC1` (stereo not drawn) [SIAIS262123, N-(4-((3-chloro-4-fluorophenyl)amino)-7-(3-(4-(6-((2-(2,6-dioxopiperidin-3-yl)-1-oxoisoindolin-4-yl)thio)hexanoyl)piperazin-1-yl)propoxy)quinazolin-6-yl)acrylamide]: the IC50 in assay [1] (setting [7]) is 2 nM; in assay [2] (setting [7]), 8.3 nM; in assay [3] (setting [8]), 143 nM; in assay [4] (setting [9]) it was 380 nM; in assay [5] it was 48.9 nM.
